Results reported in patent publication US20070105162A1, “Monovalent avidin and streptavidin compositions” (Massachusetts Institute of Technology, priority 2005, published 2007).

Experiments:
[1] = Electrospray ionization mass spectrometry: biotin molecules bound per avidin tetramer; format: binding; conditions: spectra with or without biotin
Protocol: Biospin columns (Bio-Rad) are equilibrated by spinning 5 times in 500 μL of 15 mM ammonium acetate pH 7.8 at 1000 g for 2 min. Then 30-50 μL of 30 μM protein in PBS is buffer-exchanged into 15 mM ammonium acetate pH 7.8 using the pre-equilibrated Biospin columns by spinning for 20 s at 1000 g. To ensure that PBS is completely removed, the flow-through is again buffer-exchanged with a second pre-equilibrated column for 20 s. This procedure also removes free biotin when the starting 30 μM avidin forms are incubated with 200 μM biotin. Less than 2 min before introducing into the mass spectrometer, the buffer-exchanged samples are diluted with a solution of 1:1 15 mM ammonium acetate pH 7.8 and 78% acetonitrile, 0.01% trifluoroacetic acid.
(§1) An Advion nanospray robot (Advion BioSystems, Ithica, N.Y.) with a back-pressure of 0.45 Psi introduces the samples into the mass spectrometer, an 8.5 Tesla custom-built Electrospray Ionisation-Fourier Transform Mass Spectrometer. To visualize the non-covalent tetramers and non-covalent biotin binding in the high m/z range, the following settings are used: Chirp rate=750 Hz, Amplitude=0.5 V p-p, Tube lens=200 V, Capillary heater 2 V, Quad filter=−20 V, Skimmer=0 V, Capillary offset=34 V, X-fer=−110 V, Leak gas=4.2×10^−5 Torr. The capillary heater is kept low and the Quad filter and Skimmer are kept either high or off to prevent subunit dissociation. The transfer is set to this low value of −110 V in order to visualize the high m/z region.
The masses are calculated manually by first determining the charge state. The final mass is determined by multiplying the observed m/z by the charge and subtracting the mass corresponding to the addition of protons to give that charge. This calculation is repeated for each charge state and the mean and standard deviation reported. The spectra are calibrated with tetrameric avidin, after its monomer mass is determined under denaturing conditions. […]

[2] = Electrospray ionization mass spectrometry: biotin molecules bound per streptavidin tetramer; format: binding
Protocol: Biospin columns (Bio-Rad) were equilibrated by spinning 5 times in 500 μL of 15 mM ammonium acetate pH 7.8 at 1000 g for 2 min. Then 30-50 μL of 30 μM protein in PBS was buffer-exchanged into 15 mM ammonium acetate pH 7.8 using the pre-equilibrated Biospin columns by spinning for 20 s at 1000 g. To ensure that PBS was completely removed, the flow-through was again buffer-exchanged with a second pre-equilibrated column for 20 s. This procedure also removed free biotin when the starting 30 μM streptavidin forms were incubated with 200 μM biotin. Less than 2 min before introducing into the mass spectrometer, the buffer-exchanged samples were diluted with a solution of 1:1 15 mM ammonium acetate pH 7.8 and 78% acetonitrile, 0.01% trifluoroacetic acid.
as §1, with “Psi introduced” for “Psi introduces”, “settings were” for “settings are”, “heater was” for “heater is”, “Skimmer were” for “Skimmer are”, “transfer was” for “transfer is”
The masses were calculated manually by first determining the charge state. The final mass was determined by multiplying the observed m/z by the charge and subtracting the mass corresponding to the addition of protons to give that charge. For example, for the 15+charge state of D4 an m/z of 3534.159 was obtained. (15×3534.159)-(15×1.00727) gave a mass for this ion of 52,997 Da. This calculation was repeated for each charge state and the mean and standard deviation reported. The spectra were calibrated with tetrameric streptavidin, after its monomer mass was determined under denaturing conditions (Mr=13,271.4 Da). Average masses were predicted from the DNA sequence, using the ExPASy PeptideMass Calculator (ca.expasy.org/tools/peptide-mass.html) and assuming removal of the N-terminal formyl-Methionine.
The different tetramers were purified using a Ni-nitrilotriacetic acid (NTA) column, eluting according to the number of His6-tags with increasing concentrations of imidazole. […] The tetramer composition was further confirmed by boiling the samples before loading on SDS-PAGE, to determine the ratio of A to D subunits (FIG. 1D), and by electrospray ionization mass spectrometry. In Table 1 (Schwartz, B. L. et al., J. of the Amer. Soc. for Mass Spec. 6: 459-465, 1995) the observed mass (±s.d.), determined by Electrospray Ionization-Mass Spectrometry, is compared to the mass predicted from the sequence. From the change (±s.e.m.) upon addition of biotin (mass 244.31), we determined how many biotin molecules were bound to each tetramer.
Electrospray ionization mass spectrometry was used to characterize the number of biotin molecules bound per tetramer. Spectra of the different streptavidin tetramers with or without biotin were acquired. […] The other chimeric tetramers bound one biotin per A subunit.

[3] = tested on: biotinylated AP-neuroligin-1 on hippocampal neurons; assay: AP-neuroligin-1 clustering in hippocampal neurons labeled with streptavidin; format: cell-based, rat; conditions: two hour incubation at 37° C., Alexa Fluor 568 conjugate; ± s.e.m., n=9
Protocol: HeLa cells were grown in Dulbecco's Modified Eagle Medium (DMEM) with 10% Fetal Calf Serum, 50 U/mL penicillin and 50 μg/mL streptomycin. HeLa stably expressing AP-CFP-TM or Ala-CFP-TM have been previously described (Howarth, M. et al., Proc. Natl. Acad. Sci. USA 102: 7583-7588, 2005). Dissociated primary neuronal cultures were prepared from Embryonic Day 18 or 19 (E18/19) rats and transfected with Lipofectamine 2000 at DIV6 as in Levinson et al. (Levinson, J. N. et al., J. Biol. Chem. 280: 17312-17319, 2005). […]
Images of HeLa cells were collected on a Zeiss Axiovert 200M inverted epifluorescence microscope using a 40× oil-immersion lens and a MicroMAX CCD camera (Roper Scientific; Tucson, Ariz.). CFP (420DF20 excitation, 450DRLP dichroic, 475DF40 emission) and Alexa568 (560DF20 excitation, 585DRLP dichroic, 605DF30 emission) images were collected and analyzed using OpenLab software (Improvision; Lexington, Mass.). Fluorescence images were background-corrected. […] Images were scaled to 16 bits and analyzed in Northern Eclipse (Empix Imaging; Ontario, Canada) with user-written software. […] Results were then calculated in terms of clusters per micrometer of dendrite. For assessment of pre-synaptic terminals, clusters were determined as before and average grey levels of clusters were compared between transfected dendrites and untransfected dendrites within the same field of view. […]

[4] = tested on: biotinylated AP-CFP-TM on HeLa cells; assay: Staining of biotinylated AP-CFP-TM on HeLa with Alexa Fluor 568-conjugated streptavidins; format: cell-based; conditions: Alexa Fluor 568 conjugate 10 μg/mL, 10 min at 4° C.
Protocol: Enzymatic biotinylation and imaging of HeLa transfectants were performed as previously described (Howarth, M. et al., Proc. Natl. Acad. Sci. USA 102: 7583-7588, 2005), except instead of 10 μM biotin and 1 mM ATP, we added 10 μM biotin-AMP (synthesized according to Coleman and Huang; Coleman, T. M. and Huang, F. Chem. Biol. 9: 1227-1236, 2002) to give equivalent biotinylation but minimizing the risk of purinoreceptor activation by ATP (Rathbone, M. P. et al., Prog. Neurobiol. 59: 663-690, 1999). […] Biotinylation of neurons was performed at day in vitro (DIV) 8 in Hanks' Balanced Salt Solution (HBSS) (Invitrogen) with 0.2 μM biotin ligase and 10 μM biotin-AMP for 5 min at 37° C. […] Neurons were washed with NeuroBasal media (Invitrogen) supplemented with B-27 (Invitrogen), 50 U/mL penicillin, 50 μg/mL streptomycin, and 0.2 mM L-glutamine and chased in the same medium for 0 or 2 hr at 37° C. Cells were then fixed in −20° C. methanol. […]
Images of HeLa cells were collected on a Zeiss Axiovert 200M inverted epifluorescence microscope using a 40× oil-immersion lens and a MicroMAX CCD camera (Roper Scientific; Tucson, Ariz.). CFP (420DF20 excitation, 450DRLP dichroic, 475DF40 emission) and Alexa568 (560DF20 excitation, 585DRLP dichroic, 605DF30 emission) images were collected and analyzed using OpenLab software (Improvision; Lexington, Mass.). Fluorescence images were background-corrected. […] Images were scaled to 16 bits and analyzed in Northern Eclipse (Empix Imaging; Ontario, Canada) with user-written software. […] Results were then calculated in terms of clusters per micrometer of dendrite. For assessment of pre-synaptic terminals, clusters were determined as before and average grey levels of clusters were compared between transfected dendrites and untransfected dendrites within the same field of view. […] “n” represents the number of transfected neurons for which clusters were measured. […]

[5] = Off-rate of 3H-biotin from streptavidin (cold biotin chase); format: binding; conditions: 50 μM cold biotin chase, 5 hours at 37° C., ± s.e.m.
Protocol: (Green, N. M. Methods in Enzymol. 184: 51-67, 1990). Dissociation was then initiated by addition of cold biotin at a final concentration of 50 μM and time-points taken over 5 hours at 37° C. 50 μL aliquots were removed and added to 200 μL 0.2M ZnSO4 chilled on ice, followed by 200 μL 0.2 M NaOH. The protein precipitate was pelleted by centrifugation at 16,500 g for 5 min, and ^3H-biotin in the supernatant was measured by liquid scintillation counting. Data were plotted as ln(fraction bound) versus time, and fit to a straight line by linear regression. Dissociation rates were deduced from the slope of the line and the equation: ln(fraction bound)=−koff(t) where fraction bound=(total ^3H-biotin−free ^3H-biotin at timepoint)/(total ^3H-biotin−free ^3H-biotin before cold biotin chase).

Row | biotin binding per avidin tetramer by mass spectrometry (in words) [1] | biotin binding per tetramer by mass spectrometry (in words) ([2]; spectra with or without biotin) | Substance | # biotins (bound to each tetramer) ([2]; from mass change upon addition of biotin, 30 μM protein, 200 μM biotin) | AP-neuroligin-1 clusters per micrometer of dendrite [3] [clusters/μm] | Alexa staining of biotinylated AP-CFP-TM [4] | off-rate from biotin [5]
1 | all four subunits | all four subunits | A4: Wild-type streptavidin with a His6-tag, four Alive subunits (SEQ ID NO:4) [Tetramer A4] | 4 |  |  | 
2 |  |  | wild-type streptavidin: Wild-type core streptavidin tetramer with 4 biotin binding sites (SEQ ID NO:2) [reference compound] |  | 0.266±0.011 | detected equally well | 5.17±0.25×10^−5 s^−1
